Reference: US4937235A, “3- or 4-substituted oxotremorine derivatives” (American Cyanamid Company, priority 1989, dated 1990)

Legend:
[1] = target: muscarinic cholinergic receptor; assay: [3H] Quinuclidinyl Benzilate (3H-QNB) Binding Assay; design: species or system rat; details: pH 7.4
[2] = target: muscarinic cholinergic receptor; assay: [3H]-Cis-methyldioxolane (3H-CD) Binding Assay (High Affinity); details: rat cerebral cortex, 1.0 nM 3H-CD, 25° C., 120 minutes, pH 7.4
[3] = rat cerebral cortex, 0.25 nM 3H-QNB, 25° C., 120 minutes

With `CC(=O)S[C@H]1CCN(CC#CCN(C)C)C1=O` [(S)-S-[1-[4-(Dimethylamino)-2-butynyl]-2-oxo-3-pyrrolidinyl]ethanethioic acid ester] the IC50 [1] was 40 µM and the IC50 [2] was 1.53 µM.

`O=C1[C@H](SS[C@@H]2CCN(CC#CCN3CCCCC3)C2=O)CCN1CC#CCN1CCCCC1` [[R-(R*,R*)]-3,3'-dithiobis[1-[4-(1-piperidinyl)-2-butynyl]]-2-pyrrolidinone] was tested, and the IC50 [1, 3] was 9 µM and the IC50 [2] was 1.83 µM.

In the case of `CN(C)CC#CCN1CC[C@@H](O)C1=O` [(R)-1-[4-(Dimethylamino)-2-butynyl]-3-hydroxy-2-pyrrolidinone], the IC50 [1] is reported as 1470 µM and the IC50 [2] is reported as 0.578 µM.

In the case of `CC(=O)OC1CCN(CC#CCN(C)C(C)=O)C1` (racemic) [(Racemic)-N-[4-(3-(Acetyloxy)-1-pyrrolidinyl]-2-butynyl]-N-methyl acetamide, (Racemic)-N-[4-[3-(Acetyloxy)-1-pyrrolidinyl]-2-butynyl]-N-methyl acetamide], the IC50 [1] is reported as 1930 µM and the IC50 [2] is reported as 5.46 µM.

With `CC(=O)S[C@@H]1CCN(CC#CCN2CCCCC2)C1=O` [(R)-S-[2-Oxo-1-(4-piperidinyl-2-butynyl)-3-pyrrolidinyl]ethanethioic acid ester] the IC50 [2] was 0.946 µM.

For `O=C1[C@H](O)CCN1CC#CCN1CCCCC1` [(R)-3-Hydroxy-1-[4-(1-piperidinyl)-2-butynyl]-2-pyrrolidinone], the IC50 [1] was 84 µM and the IC50 [2] was 3.46 µM.

In the case of `CC(=O)O[C@H]1CC(=O)N(CC#CCN2CCCCC2)C1` [(S)-4-(Acetyloxy)-1-[4-(1-piperidinyl)-2-butynyl]-2-pyrrolidinone], the IC50 [1] is reported as 159 µM and the IC50 [2] is reported as 9.57 µM.

`O=C1[C@@H](O)CCN1CC#CCN1CCCCC1` [(S)-3-Hydroxy-1-[4-(1-piperidinyl)-2-butynyl]-2-pyrrolidinone] was tested, and the IC50 [1] was 22 µM and the IC50 [2] was 0.476 µM.

`CC(=O)S[C@H]1CCN(CC#CCN2CCCC2)C1=O` [(S)-S-(2-Oxo-1-[4-(1-pyrrolidinyl)-2-butynyl]-3-pyrrolidinyl]ethanethioic acid ester] showed an IC50 [1] of 4 µM and an IC50 [2] of 0.07 µM.

With `CC(=O)O[C@@H]1CC(=O)N(CC#CCN2CCCCC2)C1` [(R)-4-(Acetyloxy)-1-[4-(1-piperidinyl)-2-butynyl]-2-pyrrolidinone] the IC50 [1] was 181 µM and the IC50 [2] was 8.08 µM.

With `O=C1C[C@H](O)CN1CC#CCN1CCCC1` [(S)-4-Hydroxy-1-[4-(1-pyrrolidinyl)-2-butynyl]-2-pyrrolidinone] the IC50 [1] was 270 µM and the IC50 [2] was 4.91 µM.

`CC(=O)O[C@@H]1CC(=O)N(CC#CCN(C)C)C1` [(R)-4-(Acetyloxy)-1-[4-(dimethylamino)-2-butynyl]-2-pyrrolidinone] showed an IC50 [1] of 1780 µM and an IC50 [2] of 11.5 µM.

`CN(C)CC#CCN1CC[C@@H](OC(=O)c2ccc([N+](=O)[O-])cc2)C1=O` [(R)-1-[4-(Dimethylamino)-2-butynyl]-3-[(4-nitrobenzoyl)oxy]-2-pyrrolidinone] was tested, and the IC50 [1, 3] was 113 µM and the IC50 [2] was 5.01 µM.

Work on `CO[C@H]1CCN(CC#CCN2CCCC2)C1=O` [(S)-3-Methoxy-1-[4-(1-pyrrolidinyl)-2-butynyl]-2-pyrrolidinone] yielded an IC50 [1] of 433 µM and an IC50 [2] of 1.17 µM.

`CN(C)CC#CCN1CCCC1=O` [1-[4-(Dimethylamino)-2-butynyl]-2-pyrrolidinone, reference compound] showed an IC50 [1] of 163 µM and an IC50 [2] of 0.044 µM.

Work on `O=C1C[C@H](O)CN1CC#CCN1CCCCC1` [(S)-4-Hydroxy-1-[4-(1-piperidinyl)-2-butynyl]-2-pyrrolidinone] yielded an IC50 [1] of 200 µM and an IC50 [2] of 36.1 µM.

In the case of `COC1CCN(CC#CCN2CCCC2=O)C1` (racemic) [(Racemic)-1-[4-(3-Methoxy-1-pyrrolidinyl)-2-butytnyl]-2-pyrrolidinone, (Racemic)-1-[4-(3-Methoxy-1-pyrrolidinyl)-2-butynyl]-2-pyrrolidinone], the IC50 [1] is reported as 110 µM and the IC50 [2] is reported as 1.75 µM.

`O=C(O[C@@H]1CCN(CC#CCN2CCCC2)C1=O)c1ccc([N+](=O)[O-])cc1` [(R)-3-[(4-Nitrobenzoyl)oxy]-1-[4-(1-pyrrolidinyl)-2-butynyl]-2-pyrrolidinone] gave an IC50 [1, 3] of 59 µM and an IC50 [2] of 4.29 µM.

Work on `O=C1CCCN1CC#CCN1CCCCC1` [1-[4-(1-Piperidinyl)-2-butynyl]-2-pyrrolidinone, reference compound] yielded an IC50 [1] of 2 µM and an IC50 [2] of 0.077 µM.

`CC(C)(C)[Si](C)(C)O[C@H]1CC(=O)N(CC#CCN2CCCC2)C1` [(S)-4-[[(1,1-Dimethylethyl)dimethylsilyl]oxy]-1-[4-(1-pyrrolidinyl)-2-butynyl]-2-pyrrolidinone] was tested, and the IC50 [1] was 23 µM and the IC50 [2] was 9.57 µM.

`O=C(O[C@@H]1CCN(CC#CCN2CCCCC2)C1=O)c1ccc([N+](=O)[O-])cc1` [(R)-3-[(4-Nitrobenzoyl)oxy]-1-[4-(1-piperidinyl)-2-butynyl]-2-pyrrolidinone] gave an IC50 [1, 3] of 43 µM and an IC50 [2] of 0.937 µM.

For `O=C1CCCN1CC#CCN1CCC(O)C1` (racemic) [(Racemic)-1-[4-(3-Hydroxy-1-pyrrolidinyl)-2-butynyl]-2-pyrrolidinone], the IC50 [1] was 395 µM and the IC50 [2] was 0.425 µM.

For `CNC(=O)O[C@H]1CCN(CC#CCN2CCCCC2)C1=O` [(S)-3-[[(Methylamino)carbonyl]oxy]-1-[4-(1-piperidinyl)-2-butynyl]-2-pyrrolidinone], the IC50 [1, 3] was 744 µM and the IC50 [2] was 87 µM.

`CC(=O)O[C@H]1CC(=O)N(CC#CCN2CCCC2)C1` [(S)-4-(Acetyloxy)-1-[4-(1-pyrrolidinyl)-2-butynyl]-2-pyrrolidinone] gave an IC50 [1] of 112 µM and an IC50 [2] of 6.11 µM.

In the case of `O=C1C[C@@H](O)CN1CC#CCN1CCCC1` [(R)-4-Hydroxy-1-[4-(1-pyrrolidinyl)-2-butynyl]-2-pyrrolidinone], the IC50 [1] is reported as 52 µM and the IC50 [2] is reported as 0.053 µM.

`C[N+](C)(C)CC#CCN1CCCC1=O` [N,N,N-Trimethyl-4-(2-oxo-1-pyrrolidinyl)-2-butyn-1-aminium iodide, reference compound] was tested, and the IC50 [1] was 18 µM and the IC50 [2] was 0.003 µM.

Work on `CN(C)CC#CCN1CC[C@H](O[Si](C)(C)C(C)(C)C)C1=O` [(S)-1-[4-(Dimethylamino)-2-butynyl]-3-[[(1,1-dimethylethyl)dimethylsilyl]oxy]-2-pyrrolidinone] yielded an IC50 [1] of 200 µM and an IC50 [2] of 19.5 µM.

`CC(=O)OC1CCN(CC#CCN2CCCC2=O)C1` (racemic) [(Racemic)-1-[4-[3-(Acetyloxy)-1-pyrrolidinyl]-2-butynyl]-2-pyrrolidinone] showed an IC50 [1] of 313 µM and an IC50 [2] of 1.33 µM.

With `CC(=O)O[C@@H]1CC(=O)N(CC#CCN2CCCC2)C1` [(R)-4-(Acetyloxy)-1-[4-(1-pyrrolidinyl)-2-butynyl]-2-pyrrolidinone] the IC50 [1] was 46 µM and the IC50 [2] was 0.914 µM.

For `CC(=O)N(C)CC#CCN1CCC(O)C1` (racemic) [(Racemic)-N-[4-(3-Hydroxy-1-pyrrolidinyl)-2-butynyl]-N-methyl acetamide], the IC50 [1] was 1190 µM and the IC50 [2] was 2.01 µM.

Work on `CC(=O)S[C@@H]1CCN(CC#CCN2CCCCC2)C1=O` [(R)-S-[2-Oxo-1-(4-piperidinyl-2-butynyl)-3-pyrrolidinyl]etha] [(R)-S-[2-Oxo-1-(4-piperidinyl-2-butynyl)-3-pyrrolidinyl]ethanethioic acid ester] yielded an IC50 [1] of 91 µM.

`CC(=O)O[C@H]1CCN(CC#CCN2CCCC2=O)C1` [(S)-1-[4-[3-(Acetyloxy)-1-pyrrolidinyl]-2-butynyl]-2-pyrrolidinone] was tested, and the IC50 [1] was 2320 µM and the IC50 [2] was 2.02 µM.

Work on `CC(=O)O[C@H]1CC(=O)N(CC#CCN(C)C)C1` [(S)-4-(Acetyloxy)-1-[4-(dimethylamino)-2-butynyl]-2-pyrrolidinone] yielded an IC50 [1] of 1350 µM and an IC50 [2] of 41.9 µM.

Compound `CC(=O)S[C@@H]1CCN(CC#CCN2CCCCC2)C1=O` [(R)-S-[2-Oxo-1-[4-(1-piperidinyl)-2-butynyl]-3-pyrrolidinyl]] [(R)-S-[2-Oxo-1-[4-(1-piperidinyl)-2-butynyl]-3-pyrrolidinyl]ethanethioic acid ester] has an IC50 [1] of 4.3 µM and an IC50 [2] of 0.03 µM.

`CC(=O)O[C@@H]1CCN(CC#CCN2CCCC2)C1=O` [(R)-3-(Acetyloxy)-1-[4-(1-pyrrolidinyl)-2-butynyl]-2-pyrrolidinone] was tested, and the IC50 [1] was 231 µM and the IC50 [2] was 0.547 µM.

Work on `O=C1C[C@@H](O)CN1CC#CCN1CCCCC1` [(R)-4-Hydroxy-1-[4-(1-piperidinyl)-2-butynyl]-2-pyrrolidinone] yielded an IC50 [1] of 166 µM and an IC50 [2] of 3.79 µM.

`O=C1[C@H](S)CCN1CC#CCN1CCCC1` [(R)-3-Mercapto-1-[4-(1-pyrrolidinyl)-2-butynyl]-2-pyrrolidinone] was tested, and the IC50 [1] was 1 µM and the IC50 [2] was 0.007 µM.

For `CO[C@H]1CCN(CC#CCN2CCCCC2)C1=O` [(S)-3-Methoxy-1-[4-(1-piperidinyl)-2-butynyl]-2-pyrrolidinone], the IC50 [1] was 673 µM and the IC50 [2] was 33.1 µM.

For `CC(=O)O[C@H]1CCN(CC#CCN2CCCC2)C1=O` [(S)-3-(Acetyloxy)-1-[4-(1-pyrrolidinyl)-2-butynyl]-2-pyrrolidinone], the IC50 [1] was 122 µM and the IC50 [2] was 0.152 µM.

For `COC1CCN(CC#CCN(C)C(C)=O)C1` (racemic) [(Racemic)-N-[4-(3-Methoxy-1-pyrrolidinyl)-2-butynyl]-N-methyl acetamide], the IC50 [1] was 377 µM and the IC50 [2] was 1.37 µM.

Compound `CC(=O)O[C@@H]1CCN(CC#CCN2CCCCC2)C1=O` [(R)-3-(Acetyloxy)-1-[4-(1-piperidinyl)-2-butynyl]-2-pyrrolidinone] has an IC50 [1] of 419 µM and an IC50 [2] of 4.47 µM.

`CC(C)(C)[Si](C)(C)O[C@H]1CCN(CC#CCN2CCCCC2)C1=O` [(S)-3-[[(1,1-Dimethylethyl)dimethylsilyl]oxy]-1-[4-(1-piperidinyl)-2-butynyl]-2-pyrrolidinone] gave an IC50 [1] of 24 µM and an IC50 [2] of 0.161 µM.

`CC(=O)S[C@@H]1CCN(CC#CCN(C)C)C1=O` [(R)-S-[1-[4-(Dimethylamino)-2-butynyl]-2-oxo-3-pyrrolidinyl]ethanethioic acid ester] was tested, and the IC50 [1] was 20 µM and the IC50 [2] was 0.062 µM.

For `CC(=O)O[C@H]1CCN(CC#CCN2CCCCC2)C1=O` [(S)-3-(Acetyloxy)-1-[4-(1-piperidinyl)-2-butynyl]-2-pyrrolidinone], the IC50 [1] was 367 µM and the IC50 [2] was 1.45 µM.

With `O=C1C(S)CCN1CC#CCN1CCCCC1` (stereo not shown) [3-Mercapto-1-[4-(1-piperidinyl)-2-butynyl]-2-pyrrolidinone] the IC50 [1] was 11 µM and the IC50 [2] was 0.587 µM.
